Measurements reported in patent US20220401457A1, “Use of Deoxycholic Acid, Derivatives, or Salts Thereof in Managing Bacterial Infections and Compositions Related Thereto” (Emory University, priority 2019, published 2022).

Key:
[1] = tested on: Streptococcus pneumoniae (Spn) strains; experiment: Antibacterial potency of sodium deoxycholate against cultures of Spn strains; type: cell-based; conditions: concentration as low as 0.5 mg/ml; within two hours of incubation; numerous different Spn strains including vaccine strains and strains with multiple resistance to antibiotics
Method: (§1) Streptococcus pneumoniae (Spn) colonizes the upper airways of most children. From the upper airways, Spn migrates to the ear epithelium causing otitis media, a main cause of child disease in the US. Resistance in Spn strains is a serious concern. Bile salts produced in the human liver and secreted into the gut, including sodium deoxycholate. Sodium deoxycholate at a concentration of 10 mg/mL is an injectable treatment to reduce fat under the chin. The antibacterial potency of sodium deoxycholate against Spn was assessed. […] Most tested pneumococcal strains were reference strains provided by the Centers for Disease Control and Prevention (CDC). […] It is contemplated that sodium deoxycholate can be used as a prophylactic agent to eradicate Spn from the upper airways and/or as a therapeutic agent to treat pneumococcal otitis media. To eradicate Spn from the upper airways of healthy children, a strategy using the following routes can be pursued (1) the use of nasal spray to impregnate the upper airways with sodium deoxycholate, or (2) as an additive to a gel or toothpaste. For its therapeutic used in the treatment of otitis media, ototopical antibiotic preparations can be added with sodium deoxycholate to kill antibiotic resistance Spn strains.

[2] = tested on: pneumococcal colonization (Spn); experiment: Experiments mimicking pneumococcal colonization of the human airways; type: cell-based, Streptococcus pneumoniae; conditions: 0.5 mg/ml; colonization otherwise at density of 1×10^7 cfu/mL pneumococci
Method: as §1

sodium deoxycholate
killing of cultures of Spn strains [1]: completely killed | time of exposure to eradicate pneumococcal colonization [2]: ≤ 10 min
